From US6914158B2, “Amidino compounds useful as nitric oxide synthase inhibitors” (Pharmacia Corporation, priority 2000, dated 2005)
Where a name gives a salt, the structure may show the parent alone.

Biological target: T1, iNOS in human cartilage explants (Homo sapiens, UniProt P35228)
T1 construct: from tissue; host or cells: human cartilage explants stimulated with recombinant human IL-1β
Test: Human cartilage explant assay (IL-1β-induced nitrite production)
Assay type: cell-based
Conditions: inhibition of nitrite production, IL-1β-stimulated explants; averages across all experiments and all lots
Procedure: Human Cartilage Explant Assay
Cartilage was cut into small explants of approximately 15-45 mg in weight and one or two explants per well are placed into either 96 or 48 well culture plates with 200-500 μL of culture media per well. The culture media was either a custom modification of Minimum Essential Medium(Eagle) with Earle's salts (GibcoBRL) prepared without L-Arginine, without L-Glutamine and without phenol red or a custom modification of serumless Neuman and Tytell (GibcoBRL) medium prepared without L-arginine, without insulin, without ascorbic acid, without L-glutamine and without phenol red. Both are supplemented before use with 100 μM L-Arginine (Sigma), 2 mM L-glutamine, 1×HL-1 supplement (BioWhittaker), 50 mg/ml ascorbic acid (Sigma) and 150 pg/ml recombinant human IL-1β (RD Systems) to induce nitric oxide synthase. Compounds are then added in 10 μL aliquots and the explants incubated at 37° C. with 5% CO2 for 18-24 hours. The day old supernatant is then discarded and replaced with fresh culture media containing recombinant human IL-1β and compound and incubated for another 20-24 hours. This supernatant is analyzed for nitrite with a fluorometric assay (Misko et al, Anal. Biochem., 214, 11-16, 1993). […] IC50 values (Table 1) are determined from plotting the percent inhibition of nitrite production at six different concentrations of inhibitor.

CC(=N)NCCSCC(C)(N)C(=O)O (stereo not drawn) [Example 16, S-[2-(1-Iminoethylamino)ethyl]-2-methyl-(D/L)-cysteine, bistrifluoroacetate]
IC50: 700 nM

CC(=N)NCCSC[C@](C)(N)C(=O)O [Example 1, S-[2-[(1-Iminoethyl)amino]ethyl]-2-methyl-L-cysteine, dihydrochloride]
IC50: 700 nM
